Measurements from patent US20260076948A1, “TREATMENT OF DIABETIC RETINOPATHY USING ENDOTHELIN RECEPTOR ANTAGONISTS” (Perfuse Therapeutics, Inc., priority 2019, published 2026).
“Also recorded” adds a separate entry of the source.

Key:
ETA/ETB receptor = conditions: background statement; cited from earlier work
ETA = target: T1, ETA (Homo sapiens, UniProt P25101); assay: Functional potency for ETA receptor; type: biochemical
T1 sequence (P25101 21-427): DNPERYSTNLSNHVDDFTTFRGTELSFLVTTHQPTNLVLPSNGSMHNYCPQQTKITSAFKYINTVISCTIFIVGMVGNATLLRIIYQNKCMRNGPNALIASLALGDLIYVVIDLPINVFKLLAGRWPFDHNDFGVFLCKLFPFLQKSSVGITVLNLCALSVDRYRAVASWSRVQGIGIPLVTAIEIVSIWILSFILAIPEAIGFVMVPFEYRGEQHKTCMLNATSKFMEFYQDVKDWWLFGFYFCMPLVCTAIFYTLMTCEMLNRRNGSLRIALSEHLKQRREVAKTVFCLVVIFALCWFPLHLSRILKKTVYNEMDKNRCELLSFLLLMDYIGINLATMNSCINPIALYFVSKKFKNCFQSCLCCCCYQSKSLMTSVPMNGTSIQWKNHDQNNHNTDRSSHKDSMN
Text: (§1) In the above table, the physicochemical data, e.g., solubility, were obtained following standard protocols known in the field (see, e.g., Reis et al., Mini Rev Med Chem., 2010, 10(11):1071-6; Avdeef et al., Expert Opin Drug Metab Toxicol., 2005, 1(2):325-42; Bharate et al., Comb Chem High Throughput Screen., 2016, 19(6):461-9; and Jain et al., J Pharm Biomed Anal., 2013, 86:11-35.); and the biochemical data, i.e., potency for ETA/ETB, were obtained following the protocols known in the field (see, e.g., Kirkby et al., Br J Pharmacol., 2008, 153(6):1105-19; and Maguire et al., Br J Pharmacol., 2014, 171(24):5555-72.).

[1] = test system: oxygen-induced ischemic retinopathy (OIR); assay: Mouse oxygen-induced ischemic retinopathy (OIR), retinal hypoxia area; type: in vivo; conditions: OIR mice, IVT single dose 1 μL of 2 μg/μL; 24, 48, 96 hours
Method: A relevant mice model was used to obtain the retinal hypoxia area in mice with oxygen-induced ischemic retinopathy (OIR) at different time points, as shown in FIG. 4. […] Briefly, at P17, mice with OIR (n=60) were given an injection of ET-1 antagonist (1 μL of 2 μg/μL Edonentan formulation, single dose) in one eye and PBS in the fellow eye. At 24, 48, and 96 hours after injection, mice (n=10 for each time point) were euthanized and the retinas were dissected and stained with GSA lectin and hypoxyprobe. The area of NV, area of retinal hypoxia, and the area of retinal nonperfusion were determined for each retina.

[2] = Pharmacokinetics after topical or oral administration in the rat; type: in vivo, Brown Norway rats
Method: After the administrations, the animals (N=2) were euthanized at different time points (e.g. 4 and 8 hours) and tissues were collected for analysis. List of tissues collected include plasma, retina/retinal pigment epithelium (RPE)/choroid, vitreous humor and aqueous humor.

[3] = Pharmacokinetics after topical administration in the rabbit; type: in vivo, Dutch-belted rabbits; conditions: single eye drop 100 μg, 10 minutes, 2 and 7 hours
Method: To determine the pharmacokinetic properties of Edonentan following topical administration in the rabbit, rabbits (Dutch-belted rabbits) received an eye drop in both eyes (100 μg of Edonentan, 35 μL dose volume/eye). After the administrations, the animals (N=2) were euthanized at different time points (e.g. 10 minutes (immediately after pot-dose), 2 and 7 hours) and tissues were collected for analysis. List of tissues collected include plasma, retina, vitreous humor and bulbar conjunctiva.

[4] = test system: laser-induced glaucoma model; assay: Laser-induced non-human primate glaucoma model, ONH blood flow by LSFG after IVT administration; type: in vivo, rhesus macaque, Macaca Mulatta
Method: Non-human primates (rhesus macaque, Macaca Mulatta) were obtained for this study. One eye of each animal underwent induction of elevation of intraocular pressure (IOP) by repeated laser photocoagulation of the trabecular meshwork. Imaging sessions were repeated to monitor the optic nerve head (ONH) and retinal structural changes. A study was performed to compare an experimental glaucoma eye and a contralateral healthy eye (control) of three non-human primates in global average mean blur rate (MBR) and MBR change from baseline over time as an index of ONH blood flow in a laser-induced glaucoma model. More specifically, a vehicle control, 0.02 mg/mL of Edonentan, 0.2 mg/mL of Edonentan, or 2.0 mg/mL of Edonentan was intravitreally administered ([…]) to a glaucomatous eye of each of three non-human primates (rhesus macaque, Macaca Mulatta). These graphs show the ONH blood flow in the three non-human primates after IVT administration of a vehicle alone (FIG. 7A, FIG. 7E, and FIG. 7I), 0.02 mg/mL of Edonentan (FIG. 7B, FIG. 7F, and FIG. 7J), 0.2 mg/mL of Edonentan (FIG. 7C, FIG. 7G, and FIG. 7K) or 2.0 mg/mL of Edonentan (FIG. 7D, FIG. 7H, and FIG. 7L). […] In one of the above three non-human primates, an LSFG scan was performed at various selected time points when Edonentan was administered at 2.0 mg/mL.

Permeability (PAMPA) = type: in vitro ADME; conditions: PAMPA log Pe and PSA
Text: as §1

Stability in solid state = type: physicochemical; conditions: 2 h@125° C.
Text: as §1

In the case of `Cc1onc(NS(=O)(=O)c2ccccc2-c2ccc(-c3ncco3)cc2CN(C)C(=O)CC(C)(C)C)c1C` [Edonentan, N-[[2′-[[(4,5-dimethyl-3-isoxazolyl)amino]sulfonyl]-4-(2-oxazolyl)[1,1′-biphenyl]-2-yl]methyl]-N,3,3-trimethylbutanamide], the “Endothelin receptor antagonism, description in words” value (ETA/ETB receptor) is listed as “highly selective and very potent endothelin A receptor antagonist”, the “Functional potency for ETA and ETB receptors, rating in words” value (ETA) is listed as “High potency” and the “Specificity ETA versus ETB, rating in words” value (ETA; ETA vs ETB) is listed as “High specificity”. For the same molecule, the Retinal hypoxia area [1] was “improvement of retinal hypoxia; also recorded: improved retinal hypoxia”, the “Ocular exposure after topical administration (retina/RPE/choroid, aqueous humor, vitreous humor)” value ([2]; eye drop 100 μg, 4 and 8 hours) was “detected; also recorded: permeate through cornea/sclera and achieve retina exposure” and the “Detection in the aqueous humor after oral administration” value ([2]; oral, 17 mg/kg as printed) was “detectable”. The “Detection in the retina/RPE/choroid and vitreous humor after oral administration” value ([2]; oral, 1.7 and 17 mg/kg as printed) was “detectable”, the “Tissue exposure after topical administration (plasma, retina, vitreous humor, bulbar conjunctiva)” value [3] was “detected in all tissues examined at all timepoints; also recorded: penetrate through ocular layers” and the “ONH blood flow (global average MBR, LSFG), individual animals” value ([4]; IVT 0.02, 0.2 or 2.0 mg/mL Edonentan, glaucomatous eye, over 6 hours) was “improvement of ONH blood flow in a dose-dependent manner”. The “ONH blood flow, aggregate of three non-human primates” value ([4]; IVT 0.02, 0.2 or 2.0 mg/mL, experimental glaucoma eyes vs control eyes) was “does-related increase of ONH blood flow”, the “Permeability, rating in words” value (Permeability (PAMPA)) was “Mid-High” and the “Stability in Solid State, in words” value (Stability in solid state) was “Stable”.
